Assays:
K. pneumoniae = assay: Protective effect in immunodepressed mice experimentally infected with K. pneumoniae; type: in vivo; settings: for % Mortality: cyclophosphamide immunodepressed
Description: Test 2 Assessment of the protective effect induced by ST 657, ST 733, ST 754 and ST 789 on immunodepressed mice experimentally infected.
Male CD1 mice (Charles River, Italy) of different ages were used: mice aged 6 and 12 weeks infected with Klebsiella and mice aged 7 weeks infected with Salmonella (10 mice per group).
Systemic infection in mice was induced via i.p. inoculum of either a pathogenic strain of Klebsiella (K. pneumoniae) or a pathogenic strain of Salmonella (S. typhimurium), which were able to provoke death of the animals within 5 and 20 days, respectively, following the challenge.
Infective doses prepared from overnight broth cultures corresponding to 1.5×10^5 and 3.5×10^5 live cells of K. pneumoniae, and 1×10^3 live cells of S. typhimurium were suspended in 0.2 mL of 5% gastric mucine and then injected.
The immunosuppressor (cyclophosphamide) was administered i.p. in 0.2 mL of sterile saline, 100 mg/kg, 5 days before the infective challenge.
The compounds were administered i.p., 0.25 and 25 mg/kg/day, from day -5 to day -1 (challenge at day 0).
The results obtained are expressed as % mortality and statistically processed with the Fisher's exact test (Biostatistics in Pharmacology, vol. II, Pergamon Press).

Leukemia L 1210 cells = assay: Protective effect in L 1210 Leukemia-bearing mice; type: in vivo; settings: for Dead/total / MST (mean survival time calculated by the median and the first interquartile range): 0.25 mg/kg i.p. from day +1 to day +10; for Weight control (x ± S.E.): 0.25 mg/kg/day day +1 to +10, in g (unit assumed); for number of surviving animals at the indicated day: 0.25 mg/kg/day
Protocol: Test 4 Assessement of the protective effect of ST 657 and ST 789 in tumor-bearing mice.
Male DBA/2 mice and male CD1 mice (Charles River), both aged 6 weeks, were used.
DBA/2 mice were inoculated i.p. with 1×10^5 Leukemia L 1210 cells (ATCC-American Type Culture Collection-Cell Lines & Hybridomas, 5th Ed., 1985) in 0.1 mL of Hank's medium.
The compounds were adminstered i.p. in sterile saline (0.25 mg/kg/day) from day +1 to day +10 (tumor transplantation at day 0).
Also the body weight of the animals was monitored, from day 0 to day +16 for the L 1210 leukemia-bearing mice, and from day 0 to day +21 for the S 180 sarcoma-bearing mice.
Monitoring of body weight was conducted in order to evaluate the evolution of the neoplastic process. Compounds activity was assessed as Mean Survival Time (MST).

splenocytes = assay: "In vitro-ex vivo" mytogen (PHA)-induced splenocyte proliferation in mice
Protocol: Test 5 Assessment of the "in vitro-ex vivo" effect of ST 733 and ST 789 on the mytogen (PHA)-induced splenocyte proliferation in mice.
Male B6 D2 F1 mice (Charles River, Italy) aged 7-8 weeks (4 animals per group) were used.
PHA (phytohemagglutinine) active on T lymphocytes was used as mytogen. The mytogen was tested at three different concentrations (suboptimal, optimal, superoptimal): 0.5, 2 and 4 mcg/mL/well.
The compounds were administered i.p. 25 mg/kg/day from day -5 to day -1 (spleen excision at day 0).
The experimental procedure was conducted substantially as described by Kirchner et al, "Splenic suppressor macrophages induced in mice by injection of C. parvum", J. Immunol., 1975, 115:1212.
In particular, the cell suspensions obtained from the spleens of the animals of the same group were pooled and the cell concentration was adjusted to 5×10^6 cell/mL.
To volumes of 0.1 mL of each sample, equal volumes of the mytogen preparation were added so as to obtain the previously indicated final concentrations.
Each sample was prepared in triplicate in U-bottom microtiters. A control, to which 0.1 mL of medium was added instead of the mytogen, was also prepared. The control permits the extent of spontaneous proliferation in the absence of stimulation to be assessed.
The samples were incubated at 37° C. for 48 hours and then they were pulsed with 20 μL ^3 H-TdR (25 μCi/mL).
After 18 hours of further incubation, the cells were collected on filters and counted in a beta-counter to evaluate the incorporated radioactivity (in cpm).
The results for each sample are expressed by calculating the value of the area under the curve (AUC) obtained by plotting the values of the incorporated radioactivity (in cpm) versus the three concentrations of mytogen.
In addition to AUC, also the stimulation index (SI) is considered, that is defined as follows: [formula]

[1] = system: responders (thymus of C57B1/6) induced by stimulators (spleen of DBA/2); assay: "In vitro-ex vivo" mixed lymphocyte reaction (MLR); parameters: species or system mice; settings: 25 mg/kg/day i.p. from day -5 to day -1
Protocol: Test 8 Assessment of the "in vitro-ex vivo" effect of ST 733, ST 754 and ST 789 on the mixed lymphocyte reaction (MLR).
Male DBA/2 mice (Charles River, Italy) aged 8 weeks were used as "stimulators" (4 animals per group); male inbred C57 B1/6 mice (Charles River, Italy) were used as "responders" (4 animals per group).
The compounds were administered i.p. from day -5 to day -1 (thymus excision of "responders" at day 0) 25 mg/kg/day.
The experimental procedure that was used is described by Hudson, L. and Hay, F. C., Practical Immunology, Blackwell Scientific Publication 290 (1980).

[2] = K. pneumoniae 1.5 × 10^5 cells, animals aged 6 weeks, 0.25 mg/kg/day i.p. day -5 to -1
[3] = K. pneumoniae 1.5 × 10^5 cells, animals aged 6 weeks, 25 mg/kg/day i.p. day -5 to -1
[4] = K. pneumoniae 3.5 × 10^5 cells, animals aged 12 weeks, 0.25 mg/kg/day i.p. day -5 to -1
[5] = K. pneumoniae 3.5 × 10^5 cells, animals aged 12 weeks, 25 mg/kg/day i.p. day -5 to -1
[6] = 25 mg/kg/day i.p. from day -5 to day -1

Row | Compound | % Mortality (K. pneumoniae; [2]) [%] | % Mortality (K. pneumoniae; [3]) [%] | % Mortality (K. pneumoniae; [4]) [%] | % Mortality (K. pneumoniae; [5]) [%] | Dead/total (Leukemia L 1210 cells) | MST (mean survival time calculated by the median and the first interquartile range) (Leukemia L 1210 cells) | Weight control (x ± S.E.) (Leukemia L 1210 cells; Day 0) | Weight control (x ± S.E.) (Leukemia L 1210 cells; Day 2) | Weight control (x ± S.E.) (Leukemia L 1210 cells; Day 4) | Weight control (x ± S.E.) (Leukemia L 1210 cells; Day 7) | Weight control (x ± S.E.) (Leukemia L 1210 cells; Day 9) | Weight control (x ± S.E.) (Leukemia L 1210 cells; Day 11) | number of surviving animals at the indicated day (Leukemia L 1210 cells; Day 14) | Weight control (x ± S.E.) (Leukemia L 1210 cells; Day 14) | number of surviving animals at the indicated day (Leukemia L 1210 cells; Day 16) | Weight control (x ± S.E.) (Leukemia L 1210 cells; Day 16) | also measured
1 | N=C(N)NCCC[C@H](NC(=O)OCCCCCn1cnc2c(=O)[nH]cnc21)C(=O)O [ST 789, N-5-(ipoxantin-9-yl) pentyloxycarbonylarginine, reference compound] | 50 | 40 | 50 | 60 | 9/9 | 14.0 (14.0-15.0) | 18.2 ± 0.3 | 18.0 ± 0.4 | 19.1 ± 0.3 | 20.1 ± 0.4 | 21.8 ± 0.4 | 24.0 ± 0.4 | 3 | 22.7 ± 0.9 | 1 | 22.5 | Body weight (splenocytes; [6]): 23.9 ± 0.1 g; Spleen weight (splenocytes; [6]): 87.0 ± 4.5 mg; Thymus weight (splenocytes; [6]): 64.5 ± 4.6 mg; PHA AUC (area under curve, cpm versus three mytogen concentrations) (splenocytes; PHA 0.5, 2 and 4 mcg/mL/well, 25 mg/kg/day i.p. from day -5 to day -1): 114 × 10^-3; PHA I.S. (stimulation index) (splenocytes; PHA-induced proliferation, 25 mg/kg/day i.p. from day -5 to day -1): 1.30; mytogen-induced proliferation versus the controls (in words) (splenocytes; PHA, 25 mg/kg/day i.p.): slight increase; Splenocytes No. (× 10^7) (splenocytes; pooled samples, 25 mg/kg/day i.p. from day -5 to day -1): 10.0 × 10^7; Body weight [1]: 22.1 ± 0.5 g; Spleen weight [1]: 82.7 ± 3.2 mg; Thymus weight [1]: 63.0 ± 7.9 mg; ^3 H-TdR Incorporation (cpm ± S.E.) Non stimulated responders [1]: 132.0 cpm; ^3 H-TdR Incorporation (cpm ± S.E.) Stimulated responders [1]: 9256 cpm; Thymocytes No. (× 10^7) ([1]; pooled samples): 14.7 × 10^7
2 | N-5-(ipoxantin-9-yl) pentyloxycarbonyl glycyl L-aspartate disodium salt [ST 657] | 50 | 20 | 33 | 60 | 10/10 | 15.5 (13.0-17.0) | 18.2 ± 0.5 | 18.2 ± 0.5 | 18.8 ± 0.5 | 20.1 ± 0.4 | 21.7 ± 0.6 | 23.9 ± 0.8 | 6 | 23.1 ± 0.6 | 3 | 22.4 ± 0.6 | protective effect in immunodepressed infected mice (in words) (K. pneumoniae; comparison with ST 789, K. pneumoniae and S. typhimurium tables): protective effect more potent than ST 789

Reference: patent publication US5298621A, “Oligopeptide derivatives of ipoxantine endowed with immunomodulating activity and pharmaceutical compositions containing same” (Sigma-Tau Industrie Farmaceutiche Riunite S.p.A., priority 1990, dated 1994)
